Data from patent US20060041013A1, “Alanosine formulations and methods of use” (priority 2004, published 2006).

Tests used:
physchem = type: physicochemical
Description: The solution was stirred on a stir plate at room temperature and the pH was adjusted by adding 20 microliter (μL) aliquots of 1N NaOH. After the addition of each aliquot, the resulting pH was measured potentiometrically and the results were recorded. The results of the titration appear in FIG. 1. The solution was also visually inspected during the course of the titration experiment to observe full dissolution of the alanosine.

BxPC3 = test: Cell viability MTT assay (Example 3); type: cell-based; conditions: Homo sapiens, BXPC-3, 72 h; BxPC3, Pancreatic, MTAP Negative; 3 days
[1] = Cell viability MTT assay (Example 3); type: cell-based; conditions: 72 h; A-594, NSCLC, MTAP Negative; 3 days
NCI-H2452 = test: Cell viability MTT assay (Example 3); type: cell-based; conditions: Homo sapiens, 72 h; NCI-H2452, Mesothelioma, MTAP Negative; 3 days
H-Meso-1 = test: Mesothelioma xenograft model (H-Meso-1) in SCID mice; type: in vivo; conditions: thirty-one days following treatment; docetaxel 10 mg/kg intraperitoneally daily Mon-Fri, SDX-102 50 mg/kg osmotic pump; start 100 mm^3; control 1272
[2] = humans, intravenous, biphasic plasma clearance; times approximate; cited from earlier work

SMILES: NC(CN(O)N=O)C(=O)O [L-alanosine, L(−)-2-amino-3-nitrosohydroxylaminopropionic acid]
- solubility in water (physchem): poor solubility
- pH that must be exceeded for full dissolution (physchem; free base, approx. 20 mg/mL in water): exceeded 6.2
- pKa (physchem; pKa (first)): ~5.5
- pKa (physchem; pKa (second)): ~8.5
- IC50 (BxPC3): 6000 nM
- IC50 [1]: 400 nM
- IC50 (NCI-H2452): 500 nM
- mean tumor volume (H-Meso-1): 1035 mm^3
- t1/2α [2]: ~14 min
- t1/2β [2]: ~99 min
